Test in all cases: Fluo-4 calcium assay, HEK293T + Galpha16gust44
Type in all cases: cell-based

The target in assay [1] is T1, hTAS2R16 (ssr3-hTAS2R16) (Homo sapiens, UniProt Q9NYV7, F93L).
T1 sequence (Q9NYV7 1-291 F93L): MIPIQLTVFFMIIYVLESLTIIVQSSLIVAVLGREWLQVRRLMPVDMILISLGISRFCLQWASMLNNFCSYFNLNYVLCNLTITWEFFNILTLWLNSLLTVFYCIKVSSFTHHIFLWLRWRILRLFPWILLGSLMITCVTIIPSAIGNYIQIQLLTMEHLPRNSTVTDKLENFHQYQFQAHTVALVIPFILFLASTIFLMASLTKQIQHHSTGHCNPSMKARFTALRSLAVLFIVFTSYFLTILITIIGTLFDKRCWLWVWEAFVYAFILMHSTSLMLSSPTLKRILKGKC

Assay [2] addresses T2, hTAS2R16 (ssr3-hTAS2R16) (Homo sapiens, UniProt Q9NYV7, I243V).
T2 sequence (Q9NYV7 1-291 I243V): T1 sequence (Q9NYV7 1-291 F93L) with L93F, I243V

Assay [3] addresses T3, hTAS2R16 (ssr3-hTAS2R16) (Homo sapiens, UniProt Q9NYV7, F240Y).
T3 sequence (Q9NYV7 1-291 F240Y): T1 sequence (Q9NYV7 1-291 F93L) with L93F, F240Y

Assay [4] addresses T4, hTAS2R16 (ssr3-hTAS2R16) (Homo sapiens, UniProt Q9NYV7, Q177A).
T4 sequence (Q9NYV7 1-291 Q177A): T1 sequence (Q9NYV7 1-291 F93L) with L93F, Q177A

Assay [5] has as its target T5, hTAS2R16 (ssr3-hTAS2R16) (Homo sapiens, UniProt Q9NYV7, I243L).
T5 sequence (Q9NYV7 1-291 I243L): T1 sequence (Q9NYV7 1-291 F93L) with L93F, I243L

Assay [6] concerns the target T6, hTAS2R16 (ssr3-hTAS2R16) (Homo sapiens, UniProt Q9NYV7, W94F).
T6 sequence (Q9NYV7 1-291 W94F): T1 sequence (Q9NYV7 1-291 F93L) with L93F, W94F

For assay [7], the target named is T7, hTAS2R16 (ssr3-hTAS2R16) (Homo sapiens, UniProt Q9NYV7, E86D).
T7 sequence (Q9NYV7 1-291 E86D): T1 sequence (Q9NYV7 1-291 F93L) with E86D, L93F

For assay [8], the target named is T8, hTAS2R16 (ssr3-hTAS2R16) (Homo sapiens, UniProt Q9NYV7, F93A).
T8 sequence (Q9NYV7 1-291 F93A): T1 sequence (Q9NYV7 1-291 F93L) with L93A

The record followed here is publication PMC2934701 (The Journal of Biological Chemistry, 2010).

Changes are numbered by the printed parent chain.

For `OCc1ccccc1O[C@@H]1O[C@H](CO)[C@@H](O)[C@H](O)[C@H]1O` [salicin], the EC50 in assay [1] was determined as 4150 µM; in assay [2], 840 µM; in assay [3], 2440 µM; in assay [4], 550 µM; in assay [5] it was 500 µM; in assay [6], 9680 µM. The EC50 came to 2130 µM in assay [7] and 11500 µM in assay [8].
